Key:
[1] = tested on: normal liver; experiment: Functional CT perfusion before and after acetazolamide, normal liver; format: in vivo, New Zealand White rabbits; conditions: acetazolamide 50 mg/kg IV, mean±SE
Excerpt: (§1) All animal procedures were approved by the Institutional Animal Care and Use Committee at Case Western Reserve University. The VX2 tumor, a xenograft hepatoma model used frequently in radiological studies, was donated by S, Nahum Goldberg MD, (Beth Israel Medical Center, Boston, Mass.). Tumor was initiated in livers of 5 male New Zealand White rabbits weighing 3 kg (Covance, Princeton, N.J.) using methods described previously. The tumor was first propagated in the thigh of a donor rabbit, where a suspension of tumor cells was injected intramuscularly into one thigh. The tumor was grown until the palpated size reached approximately 1 cm^3 and was harvested from anesthetized animals using sterile techniques. Pieces of the tumor (4 mm^3) were cut, placed in 10% DMSO in pure calf's serum, and stored in liquid nitrogen.
(§2) For implantation in the liver, frozen tumor was rapidly thawed and washed. Rabbits were anesthetized using a combination of xylazine (5 mg/kg), ketamine (50 mg/kg), acepromazine (2 mg/kg) and atropine (0.2 mg/kg). The abdomen was shaved and cleaned, and the liver was exposed. A piece of tumor was then inserted into the liver parenchyma and the incisions were closed. During recovery, all animals received Buprenex (0.5 mg/kg) for pain management and a subcutaneous injection of 25 ml of 0.9% saline. Additional Buprenex and saline were given as needed.
(§3) Liver perfusion maps were created 28 days after initiation of the tumor by tracking contrast enhancement on eight sequential CT images (acquired on the Mx8000 IDT, Philips Medical scanner) before and after IV injection of acetazolamide. During each CT exam, first an unenhanced baseline scan was carried out. […]
(§4) A CT perfusion software package available from the scanner manufacturer was used for all perfusion measurements. […] Arterial and portal perfusion were calculated by measuring the slope of the time-density curve before (arterial) and after (venous) peak splenic enhancement and normalizing by the vascular input. A mean percent change in perfusion before and after CAI injection was calculated. […]

[2] = tested on: liver; conditions: Taki et al.; without systemic effects; cited from earlier work
[3] = tested on: suspected recurrent tumor in liver; experiment: MR of suspected recurrent liver tumor without and after Diamox; format: in vivo, Humans; conditions: post Diamox scan vs baseline scan; lesion confirmed benign inflammation
Excerpt: FIGS. 11(a-c) are MR of suspected recurrent tumor in liver without (A) and after (B) vasodilator (Diamox), and image-guided biopsy confirmation (C). In A and B, the solid line corresponds to the lesion and the “dashed” line corresponds to the normal liver.
Several preliminary studies have been carried out using a protocol approved by the Institutional Review Board (IRB) of University Hospitals of Cleveland (FIGS. 10-11). One patient undergoing routine biopsy was screened using a pre- and post-acetazolamide injection contrast-enhanced CT scans. Following the scans, a biopsy of the tissue was taken and sent for routine histological analysis. On the image data, standard region of interest (ROI) analysis was used to obtain signal intensity values (in Hounsfield units or HU) over 600 seconds in normal liver and the mass. […] Our general hypothesis is that normal vessels either in normal liver or benign lesions respond to the vasodilatation, so the decrease in conspicuity results from dilatation of both vessel sites. […] This was confirmed by histological diagnosis. A patient with a suspected recurrent tumor underwent a similar protocol as above. Again, on the baseline scan, the lesion enhances less than the normal liver. […] Instead of creating a “steal”, the flow increases flow in the lesion indicating it has normal vessels consistent with benign inflammation. […]

[4] = tested on: inflammatory pseudotumor (benign liver lesion); experiment: Contrast-enhanced CT before and after acetazolamide in a biopsy patient; format: in vivo, Humans
Procedure: FIG. 10 is a plot illustrating CT perfusion analysis of a biopsy proven inflammatory pseudotumor before and after acetazolamide (AZ) administration (AZ 250 mg+50 mL Optiray 320).
Several preliminary studies have been carried out using a protocol approved by the Institutional Review Board (IRB) of University Hospitals of Cleveland (FIGS. 10-11). One patient undergoing routine biopsy was screened using a pre- and post-acetazolamide injection contrast-enhanced CT scans. Following the scans, a biopsy of the tissue was taken and sent for routine histological analysis. On the image data, standard region of interest (ROI) analysis was used to obtain signal intensity values (in Hounsfield units or HU) over 600 seconds in normal liver and the mass. […] Our general hypothesis is that normal vessels either in normal liver or benign lesions respond to the vasodilatation, so the decrease in conspicuity results from dilatation of both vessel sites. […] This was confirmed by histological diagnosis. A patient with a suspected recurrent tumor underwent a similar protocol as above. Again, on the baseline scan, the lesion enhances less than the normal liver. […] Instead of creating a “steal”, the flow increases flow in the lesion indicating it has normal vessels consistent with benign inflammation. Again, the results were confirmed with CT-guided biopsy.

[5] = tested on: VX2 tumor; experiment: Functional CT perfusion before and after acetazolamide, tumor peripheral rim; format: in vivo, New Zealand White rabbits; conditions: peripheral rim of untreated tumor, day 28; acetazolamide 50 mg/kg IV; mean±SE
Excerpt: as §1, §2, §3, §4

[6] = tested on: kidney; conditions: Taki et al.; without systemic effects; cited from earlier work
[7] = tested on: small hepatoma; experiment: MRI perfusion study, baseline and AZ enhanced; format: in vivo
Excerpt: FIGS. 7(a-b) are plots illustrating MRI perfusion study with the solid line showing flow in a small hepatoma and the dotted line showing flow in the normal parenchyma. FIG. 7a illustrates a baseline perfusion study showing quicker and higher enhancement of tumor vs normal liver.

[8] = tested on: hepatic artery; experiment: Hepatic artery blood flow after intravenous acetazolamide; format: in vivo; conditions: 100 mg/kg intravenously; for Blood flow in the hepatic artery: before about 2.8 ml/min
Excerpt: The amount of vasoactive agent administered to the subject to cause a noticeable increase or decrease in blood flow to the tissue of interest will depend on the specific agent administered to the subject.

[9] = tested on: woodchuck hepatoma; experiment: FDG PET uptake curves with and without phenylephrine; format: in vivo; conditions: PET with FDG and phenylephrine vs baseline FDG alone
Excerpt: FIG. 8 is a plot illustrating FDG uptake curves in woodchuck hepatoma from two PET studies.

[10] = tested on: normal prostate vessels; experiment: DCE MRI of the normal prostate with vasoactive drugs; format: in vivo, person
Procedure: A person with no history of prostate cancer and normal PSA, volunteered for multiple DCE MRI exams of the prostate to evaluate vasoactive modulation of the normal blood flow. Three separate examinations were performed several weeks apart. The studies were performed on a Siemens 1.5T Symphony scanner. The DCE MRI examination included, Siemens's tfiperf, (inversion fisp) sequence. TR=3000, TE=1.27, TI=400 flip angle=50. Gadolinium Veresetamide […], injection at 2 cc/sec for a total of 20 cc. Images were obtained every 3 seconds for a total period of 5 minutes and every minute thereafter for 15 minutes.
All three studies were performed with identical MRI sequences and parameters. The first study was performed without a vasoactive drug but the second and third study were repeated with administration of a vasoactive drug, silfenadil or pseudoephedrine. […] The third DCE MRI was performed identical to the second study with the oral administration of 25 mg of silfenadil one hour before the study, and the administration of 60 mg of pseudoephedrine 20 minutes preceding the gadolinium injection. The absorption rate of each drug is quite predictable according to the literature so the initial part of the study performed before the pseudoephedrine was vasodilated and the subsequent study had vasodilator combined with a vasoconstrictor.
Data analysis was performed using ANALYZE data management software (Analyze Direct, Inc., Lenexa, Kans., 66215, USA) and Excel (Microsoft, Seattle, Wash.).
Data graphs were normalized to the blood flow of the iliac artery. The data was acquired during the five minute period following intravenous gadolinium injection and thereby provides a semiquantitative assessment of blood flow characteristics, see below data discussion.

[11] = tested on: lung cancer; experiment: FDG PET of lung cancer before and after oral pseudoephedrine; format: in vivo; conditions: after oral pseudoephedrine; baseline SUV 4.8
Excerpt: FIGS. 9(a-b) are baseline CT (A) and corresponding PET (B) images of lung cancer. FIGS. 9(c-d) are images illustrating Tumor after oral pseudoephedrine. The tumor has not changed size on CT but has increased PET signal. SUV increased from 4.8 to 8.8, presumably due to increased blood flow to tumor and capture of FDG.

[12] = between 21 seconds and 72 seconds, 25 mg oral one hour prior
[13] = gadolinium after sildenafil, FIG. 13 legend

In the case of `CC(=O)Nc1nnc(S(N)(=O)=O)s1` [acetazolamide], the “Change in arterial perfusion” value [1] is reported as −3±33%, the “Change in total perfusion” value [1] is reported as 41±18% and the “Change in venous perfusion” value [1] is reported as 31±18%. The “Increase in blood flow to the liver” value [2] was 75+/−36%, the “Enhancement of the lesion” value [3] was “increases relative to the normal liver” and the Conspicuity ([4]; after AZ injection (AZ 250 mg), 32 HU before, benign lesion) was 15 HU. The “Blood flow / signal intensity” value ([4]; post-acetazolamide contrast-enhanced CT, normal liver and mass) was “increases in the normal liver and in the mass”, the “Change in arterial perfusion” value [5] was −31±9% and the “Change in total perfusion” value [5] was −30±7%. The “Change in venous perfusion” value [5] was −20±12%, the “Increase in blood flow to the kidney” value [6] was 33+/−11% and the “Enhancement of tumor vs normal liver” value [7] was “decrease in enhancement of the tumor compared to the normal liver”. For the same molecule, the “Increase in the blood flow through the hepatic artery” value [8] was “about 18%”, the “Blood flow in the hepatic artery” value ([8]; after about 10 minutes) was “about 3.1 ml/min” and the “Blood flow in the hepatic artery” value ([8]; after about 20 minutes) was “about 3.3 ml/min”.

In the case of `CNC[C@H](O)c1cccc(O)c1` [phenylephrine], the “FDG uptake in lesion” value [9] is reported as “increased uptake”.

In the case of `CN[C@@H](C)[C@@H](O)c1ccccc1` [pseudoephedrine], the “Reduction in the enhancement” value ([10]; after 14 minutes, pseudoephedrine 60 mg oral on top of silfenadil 25 mg oral) is reported as “about 20%”, the “Intensity in the equilibration phase” value ([10]; at 14 minutes, pseudoephedrine 60 mg oral after Sildenafil 25 mg oral) is reported as “definite decrease in intensity” and the “SUV (FDG PET signal of tumor)” value [11] is reported as 8.8.

With `CCCc1nn(C)c2c(=O)[nH]c(-c3cc(S(=O)(=O)N4CCN(C)CC4)ccc3OCC)nc12` [sildenafil] the “Enhancement of the prostate gland on MRI image” value ([10]; after sildenafil 50 mg and gadolinium, vs study without Viagra (FIG. 16)) was “greater enhancement of the gland”, the “Increase of lateral lobe enhancement vs baseline study” value [10, 12] was 78% and the “Increase of medial lobe enhancement vs baseline study” value [10, 12] was 73%. For the same molecule, the “Enhancement greater than the enhanced undilated study, medial lobe” value [10, 13] was 78%, the “Maximum enhancement greater than the enhanced, undilated study, lateral lobe” value [10, 13] was 73% and the “Increase of enhancement curve vs baseline enhancement curve” value ([10]; throughout the entire scan period of 5 minutes (300 seconds), 25 mg oral one hour prior) was “more than 70%”.

Reference: patent US20100080757A1, “METHOD OF DETECTING ABNORMAL TISSUE” (priority 2005, published 2010)
